From ChEMBL document CHEMBL1201862, “PubChem BioAssay data set” (2004)
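How tested: cells in 96-well plates exposed to compound for 48 hours at five concentrations. GI50: concentration for 50% inhibition of growth.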 Calls of active or inactive are those of the source. No stated cut-off is given here; in the data, active = GI50 up to about 1.1 µM and inactive = higher.

What was measured:
Test in all cases: NCI tumour cell line growth inhibition, 48 h
UACC-62 = tested on: UACC-62
MDA-MB-231 = tested on: MDA-MB-231
A549 = tested on: A549
SNB-75 = tested on: SNB-75
SR = tested on: SR
HL-60 = tested on: HL-60
EKVX = tested on: EKVX
Malme-3M = tested on: Malme-3M
MCF7 = tested on: MCF7
SF-295 = tested on: SF-295
SK-MEL-28 = tested on: SK-MEL-28
HCC 2998 = tested on: HCC 2998
786-0 = tested on: 786-0
SW-620 = tested on: SW-620
COLO 205 = tested on: COLO 205
TK-10 = tested on: TK-10
LOX IMVI = tested on: LOX IMVI
T47D = tested on: T47D
UACC-257 = tested on: UACC-257
CAKI-1 = tested on: CAKI-1
SN12C = tested on: SN12C
NCI-H23 = tested on: NCI-H23
RXF 393 = tested on: RXF 393
IGROV-1 = tested on: IGROV-1
OVCAR-8 = tested on: OVCAR-8
CCRF-CEM = tested on: CCRF-CEM
K562 = tested on: K562
KM12 = tested on: KM12
SF-268 = tested on: SF-268
RPMI-8226 = tested on: RPMI-8226
HOP-62 = tested on: HOP-62
PC-3 = tested on: PC-3
SK-OV-3 = tested on: SK-OV-3
HCT-15 = tested on: HCT-15
SK-MEL-5 = tested on: SK-MEL-5
M14 = tested on: M14
DU-145 = tested on: DU-145
MDA-N = tested on: MDA-N
HT-29 = tested on: HT-29
MOLT-4 = tested on: MOLT-4
MDA-MB-435 = tested on: MDA-MB-435
UO-31 = tested on: UO-31
NCI-H460 = tested on: NCI-H460
SK-MEL-2 = tested on: SK-MEL-2
SNB-19 = tested on: SNB-19
SF-539 = tested on: SF-539
Hs-578T = tested on: Hs-578T
NCI-H522 = tested on: NCI-H522
A498 = tested on: A498
HOP-92 = tested on: HOP-92
U-251 = tested on: U-251
OVCAR-4 = tested on: OVCAR-4
OVCAR-5 = tested on: OVCAR-5
ACHN = tested on: ACHN
OVCAR-3 = tested on: OVCAR-3

C/C(=C\CCC1=CC(=O)OC1)CC[C@@H]1[C@H]2C(=O)CC(C)[C@@]3(C)CC[C@]1(C)[C@@]23C (stereo partly drawn)
GI50 (UACC-62): > 10 µM (inactive) | GI50 (MDA-MB-231): > 10 µM (inactive) | GI50 (A549): > 10 µM (inactive) | GI50 (SNB-75): > 10 µM (inactive) | GI50 (SR): > 10 µM (inactive) | GI50 (HL-60): > 10 µM (inactive) | GI50 (EKVX): > 10 µM (inactive) | GI50 (Malme-3M): > 10 µM (inactive) | GI50 (MCF7): > 10 µM (inactive) | GI50 (SF-295): > 10 µM (inactive) | GI50 (SK-MEL-28): > 10 µM (inactive) | GI50 (HCC 2998): > 10 µM (inactive) | GI50 (786-0): > 10 µM (inactive) | GI50 (SW-620): > 10 µM (inactive) | GI50 (COLO 205): > 10 µM (inactive) | GI50 (TK-10): > 10 µM (inactive) | GI50 (LOX IMVI): > 10 µM (inactive) | GI50 (T47D): > 10 µM (inactive) | GI50 (UACC-257): > 10 µM (inactive) | GI50 (CAKI-1): > 10 µM (inactive) | GI50 (SN12C): > 10 µM (inactive) | GI50 (NCI-H23): > 10 µM (inactive) | GI50 (RXF 393): > 10 µM (inactive) | GI50 (IGROV-1): > 10 µM (inactive) | GI50 (OVCAR-8): > 10 µM (inactive) | GI50 (CCRF-CEM): > 10 µM (inactive) | GI50 (K562): > 10 µM (inactive) | GI50 (KM12): > 10 µM (inactive) | GI50 (SF-268): > 10 µM (inactive) | GI50 (RPMI-8226): > 10 µM (inactive) | GI50 (HOP-62): > 10 µM (inactive) | GI50 (PC-3): > 10 µM (inactive) | GI50 (SK-OV-3): > 10 µM (inactive) | GI50 (HCT-15): > 10 µM | GI50 (SK-MEL-5): > 10 µM (inactive) | GI50 (M14): > 10 µM (inactive) | GI50 (DU-145): > 10 µM (inactive) | GI50 (MDA-N): > 10 µM (inactive) | GI50 (HT-29): > 10 µM (inactive) | GI50 (MOLT-4): > 10 µM (inactive)

O=C(NC(COC(=O)C(Cc1ccccc1)NC(=O)c1ccccc1)Cc1ccccc1)c1ccccc1 (stereo not drawn)
GI50 (UACC-62): > 50 µM (inactive) | GI50 (A549): > 50 µM (inactive) | GI50 (MDA-MB-435): > 50 µM (inactive) | GI50 (UO-31): > 50 µM (inactive) | GI50 (SNB-75): > 50 µM (inactive) | GI50 (SR): > 50 µM (inactive) | GI50 (NCI-H460): > 50 µM (inactive) | GI50 (HL-60): > 50 µM (inactive) | GI50 (EKVX): > 50 µM (inactive) | GI50 (SK-MEL-2): > 50 µM (inactive) | GI50 (Malme-3M): > 50 µM (inactive) | GI50 (MCF7): > 50 µM (inactive) | GI50 (SF-295): 32.7 µM (inactive) | GI50 (SK-MEL-28): > 50 µM (inactive) | GI50 (HCC 2998): > 50 µM (inactive) | GI50 (SW-620): > 50 µM (inactive) | GI50 (SNB-19): 25.6 µM (inactive) | GI50 (SF-539): > 50 µM (inactive) | GI50 (Hs-578T): > 50 µM (inactive) | GI50 (NCI-H522): > 50 µM (inactive) | GI50 (TK-10): > 50 µM (inactive) | GI50 (A498): > 50 µM (inactive) | GI50 (HOP-92): > 50 µM (inactive) | GI50 (UACC-257): > 50 µM (inactive) | GI50 (NCI-H23): > 50 µM (inactive) | GI50 (IGROV-1): > 50 µM (inactive) | GI50 (OVCAR-8): > 50 µM (inactive) | GI50 (U-251): 35 µM (inactive) | GI50 (OVCAR-4): > 50 µM (inactive) | GI50 (K562): > 50 µM (inactive) | GI50 (KM12): > 50 µM (inactive) | GI50 (SF-268): > 50 µM (inactive) | GI50 (RPMI-8226): > 50 µM (inactive) | GI50 (OVCAR-5): > 50 µM (inactive) | GI50 (HOP-62): > 50 µM (inactive) | GI50 (PC-3): > 50 µM (inactive) | GI50 (SK-OV-3): > 50 µM (inactive) | GI50 (HCT-15): > 50 µM | GI50 (M14): > 50 µM (inactive) | GI50 (ACHN): > 50 µM (inactive) | GI50 (HT-29): > 50 µM (inactive) | GI50 (MOLT-4): > 50 µM (inactive) | GI50 (OVCAR-3): > 50 µM (inactive)
